{
  "source": "patent US7442392B2",
  "about": "“Pesticides” (priority 2004, dated 2008)",
  "system": "root-knot nematodes (Meloidogyne sp), some Pratylenchus sp.",
  "experiment": "Water screen, plant parasitic nematodes",
  "type": "in vivo",
  "method": "100 microliters containing nematodes were pipetted into 2.5 cm Petri dishes. The nematodes used were principally root-knot nematodes (Meloidogyne sp) but some initial observations were also made on some Pratylenchus sp. and free-living species (non-plant parasites). 900 microliters of Loquat extract, or 500 microliters of Loquat extract plus 400 microliters of water, were added to the nematodes to give concentrations of 90 or 50% of the original Loquat extract. Total added volume was therefore 1 ml.\nControls were nematodes from the same source placed in tap water.\nFollowing application of the Loquat or amygdalin solution, observations were made after 10 minutes, the next day, and after 5 days.",
  "data": [
    {"compound": "N#C[C@H](O[C@@H]1O[C@H](CO[C@@H]2O[C@H](CO)[C@@H](O)[C@H](O)[C@H]2O)[C@@H](O)[C@H](O)[C@H]1O)c1ccccc1", "note": "[amygdalin]", "values": [
      {"measurement": "Activity of nematodes", "setting": "10 minutes, both concentrations (70 mg or 400 mg in 50 ml water)", "result": "still active"},
      {"measurement": "Activity of nematodes", "setting": "5 days later, both amygdalin treatments", "result": "still active"},
      {"measurement": "Activity of amygdalin itself (conclusion)", "setting": "in vivo", "result": "not active per se"},
      {"measurement": "Activity of nematodes", "setting": "next day, both amygdalin treatments", "result": "active"}
    ]}
  ]
}
